Measurements: patent US20020169101A1, “Treatment of sexual dysfunction” (priority 1999, published 2002)

Key:
[1] = tested on: female rat sexual proceptivity (NMB-inhibited); test: Inhibition of female rat proceptivity by i.c.v. NMB and its antagonism; type: in vivo; settings: progesterone 0.5 mg s.c. 4 h; NMB 100 ng i.c.v. 10 min before test in progesterone-treated rats; Compound (1) 15 mg/kg i.p. 1 h before NMB (FIG. 5)
Method: Ovariectomised female rats (Sprague Dawley, obtained from Charles River, UK) were stereotaxically implanted (coordinates 0.89 mm behind Bregma, 1.3 mm lateral and 2.5 mm vertical) with stainless steel cannulae (6 mm long, O.D. 0.75 mm), held in place with dental cement. Animals were housed in groups of three and returned to a reversed lighting system of 12 h light:dark (lights off 5.00-17.00 h). Correct placement of the cannulae was assessed post-mortem. Rats were used for tests two weeks after ovariectomy (one week after cannulation). The experiments started at least 5 h into the dark period. Forty eight hours before tests, the animals were primed with 5 μg oestradiol benzoate (OB) (s.c, in corn oil) and adapted to the apparatus (in the absence of stimuli animals) for 10 min on 2 consecutive days prior testing. The 10 min test was carried out as previously described. The difference in the percentage of time spent investigating male minus female was calculated, out of the total time spent investigating stimuli.
Progesterone (Prog, 0.5 mg/0.1 ml) was dissolved in corn oil and administered subcutaneously (s.c.), 4 h before test, to induce proceptive behaviour. Compound (1) (15 mg/kg, i.p.) was dissolved in 50% 2-hydroxypropyl-β-cyclodextrin in saline and administered 1 h before the i.c.v. administration. Neuromedin B was obtained from Bachem, UK. It was dissolved in isotonic saline and administered i.c.v. over a 30 sec period, with the aid of a pump set to deliver a flow of 10 μl/min, 10 min before tests. The dosing volume was 5 μl/rat. Each rat received a total amount of 100 ng.

[2] = tested on: sexual behaviour of normal male rats; test: Sexual behaviour of normal (sexually vigorous) male rats; type: in vivo, rat; settings: Compound (1) 15 mg/kg or Fluoxetine 20 mg/kg i.p. 1 h before test
Method: The potentially stimulatory effect of Compound (1) on male sexual behaviour has been tested on sexually vigorous rats. Sprague Dawley male rats (Charles River, UK) were kept, 4 rats per cage, in a reversed lighting regime (12:12 hours, lights off at 5.00 h), with free access to food and water. The rats were pre-selected by being presented with a receptive female at 4 days intervals, i.e. every third day (having 2 clear days between presentations) until completing 6-7 […] of baseline determination. The animals showing consistently vigorous behaviour (ejaculatory latencies <300s) were chosen for further experiments (n—24). Animals were randomised into three groups. All animals received all three treatments following a latin-square design. Treatments were administered once a week, with a baseline test in between treatments (4 days intervals between baseline and test day). Treatments were Compound (1) (15 mg/kg, dissolved in 50% 2-hydroxypropyl-β-cyclodextrin in saline), vehicle, or Fluoxetine (20 mg/kg dissolved in 100% DMSO). All treatments were administered i.p. in a 1 ml/kg volume, 1 h before tests.
For all the sexual behaviour tests, the males were placed in an observation arena (50-60 cm diameter), starting 5 hours into the dark cycle and observed under red illumination. Three to 4 minutes after placing the male in the arena, a receptive female (ovariectomised, bearing a 7 mm Silastic implant of oestradiol benzoate) was introduced to the arena and the following parameters noted: Mount Latency: time (in seconds) taken between introduction of female and first mount. A maximum time of 15 minutes (900 seconds) was allowed, and the test terminated if no mounts were recorded within that time (FIG. 11), Intromission Latency: time (in seconds) taken between introduction of female and first intromission (FIG. 12), Number of Mounts: to reach ejaculation. When ejaculation was not reached, the number of mounts was not analyzed, Number of Intromissions: to reach ejaculation. When ejaculation was not reached, the number of intromissions was not analyzed (FIG. 13 is number of mounts+intromissions), Ejaculation Latency: time (in seconds) taken from first intromission to ejaculation. A maximum time of 30 minutes (1800 seconds) was given, and the test terminated if ejaculation was not achieved in that time (FIG. 14), and Refractory Period: time (in seconds) taken from ejaculation to the first mount of the next series of sexual activity. In those animals reaching ejaculation the test was terminated at the end of the refractory period, as indicated by the first mount of the next sexual cycle (FIG. 15).
A one-way ANOVA followed by Dunnett's t test was used to compare treated vs vehicle groups each day of testing, for all the sexual behaviour parameters. (*P<0.05, **P<0.01; n=15-16).

With COc1ccc(C2(CNC(=O)[C@](C)(Cc3c[nH]c4ccccc34)NC(=O)Nc3ccc([N+](=O)[O-])cc3)CCCCC2)nc1 [Compound (1), (S) 3-(1H-Indol-3-yl)-N-[1-(5-methoxy-pyridin-2-yl)-cyclohexyl-methyl]-2-methyl-2-[3-(4-nitro-phenyl)-ureido]-propionamide] the “proceptivity (percentage of time investigating male minus female stimulus)” value [1] was “prevented the inhibitory effect of NMB”, the “Mount Latency” value ([2]; vs vehicle (FIG. 11)) was “no effect on any of the parameters studied” and the “Intromission Latency” value ([2]; vs vehicle (FIG. 12)) was “no effect on any of the parameters studied”. For the same molecule, the “number of mounts and intromissions required to achieve ejaculation” value ([2]; vs vehicle (FIG. 13)) was “no effect on any of the parameters studied”, the “Ejaculation Latency” value ([2]; vs vehicle (FIG. 14)) was “no effect on any of the parameters studied” and the “Refractory Period” value ([2]; vs vehicle (FIG. 15)) was “no effect on any of the parameters studied”.
